According to ChEMBL document CHEMBL5131435, “Boronic acid derivative activates pyruvate kinase M2 indispensable for redox metabolism in oral cancer cells” (Bioorg Med Chem Lett, 2022):
Active and inactive are the calls of the source. No cut-off for these calls is given here.

Experiments:
Format in all cases: cell-based
Pyruvate kinase PKM [1] = target: T1, Pyruvate kinase PKM (Homo sapiens, UniProt P14618); test: Activation of PKM2 in human CAL-27 cells measured after 3 hrs
Pyruvate kinase PKM [2] = target: T1, Pyruvate kinase PKM; test: Activation of PKM2 in human CAL-27 cells assessed as increased in TPI1 activity at 52 nM measured after 3 hrs; conditions: filed as activator
Target sequence in this assay (P14618 2-531 limits assumed): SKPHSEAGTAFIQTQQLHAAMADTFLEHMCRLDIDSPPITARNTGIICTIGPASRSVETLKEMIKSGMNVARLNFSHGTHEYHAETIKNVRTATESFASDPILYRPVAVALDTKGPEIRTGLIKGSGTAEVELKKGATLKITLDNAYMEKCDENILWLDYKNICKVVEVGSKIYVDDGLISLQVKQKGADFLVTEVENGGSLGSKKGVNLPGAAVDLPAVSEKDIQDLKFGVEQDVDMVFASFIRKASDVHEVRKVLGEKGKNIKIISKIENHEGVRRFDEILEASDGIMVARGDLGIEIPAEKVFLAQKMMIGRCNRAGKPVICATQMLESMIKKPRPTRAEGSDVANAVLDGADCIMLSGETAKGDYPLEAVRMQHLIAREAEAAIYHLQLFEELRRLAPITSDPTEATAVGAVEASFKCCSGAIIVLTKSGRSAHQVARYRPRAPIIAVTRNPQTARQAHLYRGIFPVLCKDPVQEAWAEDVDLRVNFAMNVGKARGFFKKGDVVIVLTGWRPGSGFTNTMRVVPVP

Pyruvate kinase PKM [3] = target: T1, Pyruvate kinase PKM; test: Activation of PKM2 in human CAL-27 cells assessed as decrease in GSH level at 52 nM; conditions: filed as activator
Target sequence in this assay (P14618 2-531 limits assumed): as above

Pyruvate kinase PKM [4] = target: T1, Pyruvate kinase PKM; test: Activation of PKM2 in human CAL-27 cells assessed as decrease in NADP+/NADPH ratio at 12.5 to 50 nM; conditions: filed as activator, dose 12.5-50 nM
Target sequence in this assay (P14618 2-531 limits assumed): as above

Pyruvate kinase PKM [5] = target: T1, Pyruvate kinase PKM; test: Activation of PKM2 in human CAL-27 cells assessed as increased in TPI1 activity at 12.5 to 50 nM measured after 3 hrs; conditions: filed as activator, dose 12.5-50 nM
Target sequence in this assay (P14618 2-531 limits assumed): as above

Pyruvate kinase PKM [6] = target: T1, Pyruvate kinase PKM; test: Activation of PKM2 in human CAL-27 cells assessed as decrease in lactate levels at 12.5 to 50 nM; conditions: filed as activator, dose 12.5-50 nM
Target sequence in this assay (P14618 2-531 limits assumed): as above

Pyruvate kinase PKM [7] = target: T1, Pyruvate kinase PKM; test: Activation of PKM2 in human CAL-27 cells assessed as decrease in GSH level at 12.5 to 50 nM; conditions: filed as activator, dose 12.5-50 nM
Target sequence in this assay (P14618 2-531 limits assumed): as above

AC50 (Pyruvate kinase PKM [1])	Activity (Pyruvate kinase PKM [2])	Activity (Pyruvate kinase PKM [3])	Activity (Pyruvate kinase PKM [4])	Activity (Pyruvate kinase PKM [5])	Activity (Pyruvate kinase PKM [6])	Activity (Pyruvate kinase PKM [1]; filed as activator, dose 10-100 nM, DDE = dose-dependent effect)	Activity (Pyruvate kinase PKM [7])	Structure (SMILES)
52 nM	Active	Active						Nc1cccc(S(=O)(=O)N2CCCN(S(=O)(=O)c3ccc4c(c3)OCCO4)CC2)c1
50 nM			Active	Active	Active	Dde	Active	CCOC(=O)/C(=C\c1ccc(B(O)O)cc1)C(=O)c1sc(Nc2ccc(Cl)cc2)nc1N(C)C
